Data as given in patent US4927919A, “Chartreusin derivatives and salts thereof” (Ishihara Sangyo Kaisha, Ltd., priority 1985, dated 1990).
Read-outs that look alike come from different tables or passages of the source.

Tests used:
[1] = Acute toxicity (LD50, single intravenous administration); parameters: species or system day mice; details: mouse, in vivo, mice, single i.v.
Source text: In Table 15 are shown acute toxicity values (LD50, mg/kg) in day mice in the case of intravenously administering (once) each of the compounds of this invention in the form of preparations shown in the Preparation Examples shown in Table 16.

P-388 leukemia cells = experiment: Antitumor activity against P-388 leukemia cells (i.p. implanted, i.v. drug); type: in vivo, BDF1 mice; details: Mus musculus, P388, iv, 720 h, read-out: T/C of MST; for response vs control in vivo at 20 mg/kg/day: dose b': 20 mg/kg/d × 2 (days 1, 5); for response vs control in vivo at 40 mg/kg/day: dose c': 40 mg/kg/d × 2 (days 1, 5); for response vs control in vivo at 80 mg/kg: dose f: 80 mg/kg/d × 3 (days 1, 5, 9)
Description: BDF1 mice were implanted intraperitoneally with P-388 leukemia cells at a rate of 1×10^6 cells/mouse, and each drug to be tested was administered intravenously on the first, fifth and ninth days, or on the first and fifth days after the implantation. […] The T/C (%) was calculated based on the following equation: [formula]
The drugs tested were as follows: solutions prepared by dissolving each of compound Nos. 34, 36 and 43 to 46 in physiological saline; suspension or solutions prepared by dissolving each of compound Nos. 35, 38 and 49 to 55 in dimethylacetamide, followed by adding thereto a small amount of a surface active agent (e.g., Tween-80) and then physiological saline; and suspension or solutions prepared by mixing each of the other compounds and a small amount of a surface active agent (e.g., Tween-80), followed by adding thereto physiological saline.

[2] = i.v., dose c: 40 mg/kg/d × 3 (days 1, 5, 9), 30-day observation
[3] = i.v., dose b: 20 mg/kg/d × 3 (days 1, 5, 9), 30-day observation

SMILES	response vs control in vivo at 40 mg/kg (P-388 leukemia cells; [2]) [%]	response vs control in vivo at 80 mg/kg (P-388 leukemia cells; i.v., 30-day observation) [%]	LD50 ([1]; Preparation Example 2) [mg/kg]	response vs control in vivo at 20 mg/kg (P-388 leukemia cells; [3]) [%]	also measured
COC1C(O)C(C)OC(OC2C(Oc3cccc4c(OC(=O)c5ccc[nH]5)c5c(=O)oc6ccc(C)c7c(=O)oc(c34)c5c67)OC(C)C3OC(c4ccccc4)OC32)C1O (stereo not drawn) [Compound 1]					LD50 ([1]; Preparation Example 1): ≥ 40 mg/kg; response vs control in vivo at 20 mg/kg/day (P-388 leukemia cells; i.v., 30-day observation): 154%; response vs control in vivo at 40 mg/kg/day (P-388 leukemia cells; i.v., 30-day observation): 188%
COC1C(O)C(C)OC(OC2C(Oc3cccc4c(OC(=O)C5CCCN5C(=O)OCc5ccccc5)c5c(=O)oc6ccc(C)c7c(=O)oc(c34)c5c67)OC(C)C3OC(C)(C)OC32)C1O (stereo not drawn) [Compound 3, 6-O-(N-carbobenzyloxy-prolyl)-3',4'-O-isopropylidene-chartreusin]	139	195			LD50 ([1]; Preparation Example 3): ≥ 160 mg/kg
COC1C(O)C(C)OC(OC2C(Oc3cccc4c(OC(=O)C5CCCN5C(=O)CNC(=O)CNC(=O)OCc5ccccc5)c5c(=O)oc6ccc(C)c7c(=O)oc(c34)c5c67)OC(C)C3OC(c4ccccc4)OC32)C1O (stereo not drawn) [Compound 4]			≥ 20	138	
COC1C(O)C(C)OC(OC2C(Oc3cccc4c(OC(=O)c5ccco5)c5c(=O)oc6ccc(C)c7c(=O)oc(c34)c5c67)OC(C)C3OC(C)(C)OC32)C1O (stereo not drawn) [Compound 5]		217			LD50 ([1]; Preparation Example 4): ≥ 80 mg/kg
COC1C(O)C(C)OC(OC2C(Oc3cccc4c(OC(=O)c5ccoc5)c5c(=O)oc6ccc(C)c7c(=O)oc(c34)c5c67)OC(C)C3OC(C)(C)OC32)C1O (stereo not drawn) [Compound 7]	149	194			LD50 ([1]; Preparation Example 3): ≥ 80 mg/kg
COC1C(O)C(C)OC(OC2C(Oc3cccc4c(OC(=O)c5ccc(Br)o5)c5c(=O)oc6ccc(C)c7c(=O)oc(c34)c5c67)OC(C)C3OC(C)(C)OC32)C1O (stereo not drawn) [Compound 8, 6-O-{2-(5-bromofuryl)-carbonyl}-3',4'-O-isopropylidene-chartreusin]		178			LD50 ([1]; Preparation Example 3): ≥ 80 mg/kg
COC1C(O)C(C)OC(OC2C(Oc3cccc4c(OC(=O)C=Cc5ccco5)c5c(=O)oc6ccc(C)c7c(=O)oc(c34)c5c67)OC(C)C3OC(C)(C)OC32)C1O (stereo not drawn) [Compound 9]		194			LD50 ([1]; Preparation Example 3): ≥ 80 mg/kg
COC1C(O)C(C)OC(OC2C(Oc3cccc4c(OC(=O)c5ccc(C)s5)c5c(=O)oc6ccc(C)c7c(=O)oc(c34)c5c67)OC(C)C3OC(C)(C)OC32)C1O (stereo not drawn) [Compound 12]		194			LD50 ([1]; Preparation Example 3): ≥ 80 mg/kg
COC1C(O)C(C)OC(OC2C(Oc3cccc4c(OC(=O)Cc5cccs5)c5c(=O)oc6ccc(C)c7c(=O)oc(c34)c5c67)OC(C)C3OC(C)(C)OC32)C1O (stereo not drawn) [Compound 13]	134	182			LD50 ([1]; Preparation Example 3): ≥ 80 mg/kg
COC1C(O)C(C)OC(OC2C(Oc3cccc4c(OC(=O)CCCCC5CCSS5)c5c(=O)oc6ccc(C)c7c(=O)oc(c34)c5c67)OC(C)C3OC(c4ccccc4)OC32)C1O (stereo not drawn) [Compound 15]	201		≥ 40	153	
COC1C(O)C(C)OC(OC2C(Oc3cccc4c(OC(=O)C=Cc5c[nH]cn5)c5c(=O)oc6ccc(C)c7c(=O)oc(c34)c5c67)OC(C)C3OC(c4ccccc4)OC32)C1O (stereo not drawn) [Compound 16]	148		≥ 40		
COC1C(O)C(C)OC(OC2C(Oc3cccc4c(OC(=O)c5ccc6[nH]ccc6c5)c5c(=O)oc6ccc(C)c7c(=O)oc(c34)c5c67)OC(C)C3OC(c4ccccc4)OC32)C1O (stereo not drawn) [Compound 18]	242		≥ 40	167	
COc1ccc2[nH]c(C(=O)Oc3c4cccc(OC5OC(C)C6OC(c7ccccc7)OC6C5OC5OC(C)C(O)C(OC)C5O)c4c4oc(=O)c5c(C)ccc6oc(=O)c3c4c65)cc2c1 (stereo not drawn) [Compound 19, 6-O-{2-(5-methoxyindolyl)-carbonyl}-3',4'-O-benzylidene-chartreusin]	165		≥ 40	131	
COC1C(O)C(C)OC(OC2C(Oc3cccc4c(OC(=O)Cc5c[nH]c6ccccc56)c5c(=O)oc6ccc(C)c7c(=O)oc(c34)c5c67)OC(C)C3OC(c4ccccc4)OC32)C1O (stereo not drawn) [Compound 20]	286		≥ 40	148	
COC1C(O)C(C)OC(OC2C(Oc3cccc4c(OC(=O)C=Cc5ccc6c(c5)OCO6)c5c(=O)oc6ccc(C)c7c(=O)oc(c34)c5c67)OC(C)C3OC(c4ccccc4)OC32)C1O (stereo not drawn) [Compound 21]	176		≥ 40	131	
COC1C(O)C(C)OC(OC2C(Oc3cccc4c(OC(=O)CCc5ccc6c(c5)OCO6)c5c(=O)oc6ccc(C)c7c(=O)oc(c34)c5c67)OC(C)C3OC(c4ccccc4)OC32)C1O (stereo not drawn) [Compound 22]	222		≥ 40	142	
COC1C(O)C(C)OC(OC2C(Oc3cccc4c(OC(=O)C5CCN(C(=O)C(F)(F)F)CC5)c5c(=O)oc6ccc(C)c7c(=O)oc(c34)c5c67)OC(C)C3OC(C)(C)OC32)C1O (stereo not drawn) [Compound 23]	127				LD50 ([1]; Preparation Example 3): ≥ 40 mg/kg
COC1C(O)C(C)OC(OC2C(Oc3cccc4c(OC(=O)C5CCCN(C)C5)c5c(=O)oc6ccc(C)c7c(=O)oc(c34)c5c67)OC(C)C3OC(c4ccccc4)OC32)C1O (stereo not drawn) [Compound 24]			≥ 40		response vs control in vivo at 20 mg/kg/day (P-388 leukemia cells; i.v., 30-day observation): 152%; response vs control in vivo at 40 mg/kg/day (P-388 leukemia cells; i.v., 30-day observation): 186%
COC1C(O)C(C)OC(OC2C(Oc3cccc4c(OC(=O)C5CC(OC(C)=O)CC(C)(C)O5)c5c(=O)oc6ccc(C)c7c(=O)oc(c34)c5c67)OC(C)C3OC(c4ccccc4)OC32)C1O (stereo not drawn) [Compound 26]			≥ 20		
COC1C(O)C(C)OC(OC2C(Oc3cccc4c(OC(=O)c5ccc6ccccc6n5)c5c(=O)oc6ccc(C)c7c(=O)oc(c34)c5c67)OC(C)C3OC(C)(C)OC32)C1O (stereo not drawn) [Compound 27]	142				LD50 ([1]; Preparation Example 5): ≥ 80 mg/kg
COC1C(O)C(C)OC(OC2C(Oc3cccc4c(OC(=O)c5cc(-c6ccccc6)nc6ccccc56)c5c(=O)oc6ccc(C)c7c(=O)oc(c34)c5c67)OC(C)C3OC(c4ccccc4)OC32)C1O (stereo not drawn) [Compound 28]		192		197	LD50 ([1]; Preparation Example 1): ≥ 20 mg/kg
COC1C(O)C(C)OC(OC2C(Oc3cccc4c(OC(=O)Cc5ccc6c(c5)OCO6)c5c(=O)oc6ccc(C)c7c(=O)oc(c34)c5c67)OC(C)C3OC(c4ccccc4)OC32)C1O (stereo not drawn) [Compound 29]			≥ 40		response vs control in vivo at 20 mg/kg (P-388 leukemia cells): 201%; response vs control in vivo at 40 mg/kg (P-388 leukemia cells): 255%
COC1C(O)C(C)OC(OC2C(Oc3cccc4c(OC(=O)c5cc6ccccc6[nH]5)c5c(=O)oc6ccc(C)c7c(=O)oc(c34)c5c67)OC(C)C3OC(c4cccc(F)c4)OC32)C1O (stereo not drawn) [Compound 30, 6-O-(2-indolyl-carbonyl)-3',4'-O-(m-fluorobenzylidene)-chartreusin]		142	≥ 80		
COC1C(O)C(C)OC(OC2C(Oc3cccc4c(OC(=O)c5ccc[nH]5)c5c(=O)oc6ccc(C)c7c(=O)oc(c34)c5c67)OC(C)C3OC(c4cccc(Br)c4)OC32)C1O (stereo not drawn) [Compound 31]	128				LD50 ([1]; Preparation Example 1): ≥ 40 mg/kg
COC1C(O)C(C)OC(OC2C(Oc3cccc4c(OC(=O)C5CC(=O)CC(C)(C)O5)c5c(=O)oc6ccc(C)c7c(=O)oc(c34)c5c67)OC(C)C3OC(c4ccccc4)OC32)C1O (stereo not drawn) [Compound 32]			≥ 40		response vs control in vivo at 20 mg/kg/day (P-388 leukemia cells; i.v., 30-day observation): 185%; response vs control in vivo at 40 mg/kg/day (P-388 leukemia cells; i.v., 30-day observation): 213%
